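All cell lines were grown in 96-well plates and treated with compound for 48 hours. GI50 marks 50% less growth. Definition used: TGI = concentration required for complete inhibition of growth.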
What was measured:
Assay in all cases: growth of human tumour cells (NCI), 48 h
CCRF-CEM leukemia = system: CCRF-CEM leukemia
HCT-116 colon = system: HCT-116 colon
IGROV1 ovarian = system: IGROV1 ovarian
LOX IMVI melanoma = system: LOX IMVI melanoma
SF-268 CNS = system: SF-268 CNS
SK-MEL-2 melanoma = system: SK-MEL-2 melanoma
SK-MEL-5 melanoma = system: SK-MEL-5 melanoma
SK-OV-3 ovarian = system: SK-OV-3 ovarian
UACC-257 melanoma = system: UACC-257 melanoma
MALME-3M melanoma = system: MALME-3M melanoma

Structure (SMILES): NC(CCP(=O)(O)CCC1C=CC=CC1)C(=O)O (stereo not given)
- TGI (CCRF-CEM leukemia): > 100 µM
- TGI (HCT-116 colon): > 100 µM
- TGI (IGROV1 ovarian): > 100 µM
- TGI (LOX IMVI melanoma): > 100 µM
- TGI (SF-268 CNS): > 100 µM
- TGI (SK-MEL-2 melanoma): > 100 µM
- TGI (SK-MEL-5 melanoma): > 100 µM
- TGI (SK-OV-3 ovarian): > 100 µM
- TGI (UACC-257 melanoma): > 100 µM

Structure (SMILES): O=C(O)C1Cc2c([nH]c3ccccc23)C=N1 (stereo not given)
- TGI (CCRF-CEM leukemia): > 100 µM
- TGI (HCT-116 colon): > 100 µM
- TGI (IGROV1 ovarian): > 100 µM
- TGI (LOX IMVI melanoma): > 100 µM
- TGI (MALME-3M melanoma): > 100 µM
- TGI (SF-268 CNS): > 100 µM
- TGI (SK-MEL-2 melanoma): > 100 µM
- TGI (SK-MEL-5 melanoma): > 100 µM
- TGI (SK-OV-3 ovarian): > 100 µM
- TGI (UACC-257 melanoma): > 100 µM

Structure (SMILES): CC12CCC(C(=O)N3CC=CCC3)(OC1=O)C2(C)C (stereo not given)
- TGI (CCRF-CEM leukemia): > 100 µM
- TGI (HCT-116 colon): > 100 µM
- TGI (IGROV1 ovarian): > 100 µM
- TGI (LOX IMVI melanoma): > 100 µM
- TGI (MALME-3M melanoma): > 100 µM
- TGI (SF-268 CNS): > 100 µM
- TGI (SK-MEL-2 melanoma): > 100 µM
- TGI (SK-MEL-5 melanoma): > 100 µM
- TGI (SK-OV-3 ovarian): > 100 µM
- TGI (UACC-257 melanoma): > 100 µM

Structure (SMILES): COc1cc(C2=C(C#N)C(N)OC3=C2COc2ccccc23)cc(OC)c1OC (stereo not given)
- TGI (CCRF-CEM leukemia): > 100 µM
- TGI (HCT-116 colon): 43.5 µM
- TGI (IGROV1 ovarian): > 100 µM
- TGI (LOX IMVI melanoma): > 100 µM
- TGI (MALME-3M melanoma): 32.3 µM
- TGI (SF-268 CNS): 89.1 µM
- TGI (SK-MEL-2 melanoma): > 100 µM
- TGI (SK-MEL-5 melanoma): > 100 µM
- TGI (SK-OV-3 ovarian): 39.3 µM
- TGI (UACC-257 melanoma): > 100 µM

Structure (SMILES): Nc1ccc2c3c(n(CCCCl)c(=O)c2c1)-c1cc2c(cc1C3=O)OCO2
- GI50 (CCRF-CEM leukemia): > 100 µM
- TGI (CCRF-CEM leukemia): > 100 µM
- GI50 (IGROV1 ovarian): 0.177 µM
- TGI (IGROV1 ovarian): > 100 µM
- GI50 (LOX IMVI melanoma): > 100 µM
- TGI (LOX IMVI melanoma): > 100 µM
- GI50 (MALME-3M melanoma): 7.79 µM
- TGI (MALME-3M melanoma): > 100 µM
- GI50 (SF-268 CNS): > 100 µM
- TGI (SF-268 CNS): > 100 µM
- GI50 (SK-MEL-2 melanoma): > 100 µM
- TGI (SK-MEL-2 melanoma): > 100 µM
- GI50 (SK-MEL-5 melanoma): 0.12 µM
- TGI (SK-MEL-5 melanoma): 0.714 µM
- GI50 (SK-OV-3 ovarian): > 100 µM
- TGI (SK-OV-3 ovarian): > 100 µM
- GI50 (UACC-257 melanoma): > 100 µM
- TGI (UACC-257 melanoma): > 100 µM

Structure (SMILES): CCC(=O)NC(Nc1ccc(O)cc1)(C(F)(F)F)C(F)(F)F
- TGI (CCRF-CEM leukemia): > 100 µM
- TGI (HCT-116 colon): > 100 µM
- TGI (LOX IMVI melanoma): > 100 µM
- TGI (MALME-3M melanoma): > 100 µM
- TGI (SF-268 CNS): > 100 µM
- TGI (SK-MEL-2 melanoma): > 100 µM
- TGI (SK-OV-3 ovarian): > 100 µM
- TGI (UACC-257 melanoma): > 100 µM

Structure (SMILES): COC(=O)c1ccc(N=NN(C)COc2ccc([N+](=O)[O-])cc2)cc1
- TGI (CCRF-CEM leukemia): > 100 µM
- TGI (HCT-116 colon): > 100 µM
- TGI (IGROV1 ovarian): > 100 µM
- TGI (LOX IMVI melanoma): > 100 µM
- TGI (MALME-3M melanoma): > 100 µM
- TGI (SF-268 CNS): > 100 µM
- TGI (SK-MEL-2 melanoma): > 100 µM
- TGI (SK-MEL-5 melanoma): > 100 µM
- TGI (SK-OV-3 ovarian): > 100 µM
- TGI (UACC-257 melanoma): > 100 µM

Structure (SMILES): N=C(N)c1csc([C@@H]2O[C@H](CO)[C@@H](O)[C@H]2O)n1
- TGI (CCRF-CEM leukemia): > 100 µM
- TGI (HCT-116 colon): > 100 µM
- TGI (IGROV1 ovarian): > 100 µM
- TGI (LOX IMVI melanoma): > 100 µM
- TGI (MALME-3M melanoma): > 100 µM
- TGI (SF-268 CNS): > 100 µM
- TGI (SK-MEL-2 melanoma): > 100 µM
- TGI (SK-MEL-5 melanoma): > 100 µM
- TGI (SK-OV-3 ovarian): > 100 µM
- TGI (UACC-257 melanoma): > 100 µM
